Data set [1] in a line: Acid stability (acid-mediated hydrolytic decomposition, simulated stomach conditions). Type of data set: physicochemical. The settings on record: 0.1 N hydrochloric acid at 25° C. As to the method:
The compound of Example 3 was tested for stability towards acid-mediated hydrolytic decomposition employing a test designed to simulate stomach conditions. The compound was incubated at an initial concentration of 0.27 mg/mL in dilute hydrochloric acid at pH 1 for 72 hours at 37° C. HPLC was run immediately for t=0 and at intervals up to approximately 72 hours.
In contrast, the phosphoramidate of 2′,3′-dideoxy-adenosine (Compound 1093, PCT/GB9600580) had entirely decomposed by t=13 hours and 2′,3′-didehydro-2′,3′-dideoxy-adenosine (Compound 1001, PCT/GB96/00580) had entirely decomposed at t=0 in 0.1 N hydrochloric acid at 25° C.

The structures appear in SMILES notation.

Take `Nc1ncnc2c1ncn2[C@H]1C=C[C@@H](CO)O1` [Compound 1001, 2′,3′-didehydro-2′,3′-dideoxy-adenosine]: the “time t at which entirely decomposed” value in data set [1] is 0 h.

The compound `Nc1ncnc2c1ccn2[C@@H]1C=C[C@H](CO)C1` [Example 1, (+)-(1R, cis)-4-[4-Amino-7H-pyrrolo(2,3-d)pyrimidin-7-yl]-2-cyclopentene-1-methanol] came in with a melting point of 165 to 168 °C.

The values above are taken from US20030045508A1, “(1r,cis)-4-(4-amino-7h-pyrrolo'2,3-i(d) pyrimidine-7-yl)-2-cyclopentene-1-methanol derivatives as antiviral” (priority 2002, published 2003).
